Key:
[1] = DPPH radical scavenging activity; assay type: biochemical; details: for DPPH radical scavenging activity IC50: Table 3
Description: In order to extract an effective ingredient having an anti-oxidant activity from Cercis chinensis, an experiment was performed following the procedure represented in a schematic diagram of FIG. 1. Particularly, 1 kg of leaves and stems of Cercis chinensis, dried in shadow, were grinded to powder using a pulverizer, which was extracted by ethanol (EtOH) at room temperature twice at intervals of two weeks. For the extraction, ethanol solutions were prepared by adding ethanol gradually, 10% at a time, from 0% to 100%. The prepared ethanol solutions were used for the extraction. […] But, it looses absorbance when being scavenged. Based on that point, an anti-oxidant activity can be measured using DPPH. […] Then, each solution was distributed into a 96 well plate by 10 μl each, into which 190 μl of DPPH(Sigma, St. Louis, Mo, USA) solution whose ethanol concentration was 2×10^−4 M/ml was added. The plate was just left at room temperature for 30 minutes. Finally, OD517 was measured at 517 nm. For a control, DMSO was added instead of the sample, and changes of optical density were investigated. […] DDPH Radical Scavenging Activity (%)=(Acontrol−Asample)/(Acontrol)×100 <Mathematica Formula 1>
Acontrol: Optical density of control group (sample was not added),
Asample: Optical density of experimental group (sample was added).
In order to identify a fraction having an anti oxidant activity among hexane Fr, EtOAc Fr and BuOH Fr obtained above, a DPPH radical scavenging activity was measured using each extract of each fraction following the method used above. At this time, vitamin E, known to have high DPPH radical scavenging activity, was used as a comparing group.
At this time, BHA (tert-butyl-4 hydroxyanisole) and α-tocopherol, synthetic anti-oxidant agents, were used as positive controls.

[2] = Hydroxyl radical scavenging activity (deoxyribose/TBA, method of Halliwell); assay type: biochemical; details: for Hydroxyl radical scavenging activity (%): 10 μg of sample, total volume 1 ml
Description: Hydroxyl radical (HO.) is generated by the reaction of a metal ion or a superoxide radical. Owing to its strong reactivity, hydroxyl radical causes oxidative damages to DNA, protein and lipid in vivo. Nitric oxide (NO.) is reacted with a superoxide radical to generate a peroxy nitrite (ONOO—), also having strong reactivity. […] Particularly, each compound was mixed with 10 μg of a sample dissolved in DMSO, phosphate buffer (20 mM, pH 7.4) 5.6 mM deoxyribose, 0.1 mM FeCl3, 1 mM H2O2 and 0.1 mM ascorbic acid, making total volume 1 ml, which was then reacted at 37° C. for 60 minutes. 250 μl of 20% TCA and 250 μl of 1% TBA solution (dissolved in 50 mM NaOH) were added to the reaction solution, followed by thermal reaction at 95° C. for 5 minutes. After completing the reaction, OD532 was measured. Hydroxyl radical scavenging activity was calculated by the below
<Mathematical Formula 3>. BHA and α-tocopherol were used for a positive control. Hydroxyl Radical Scavenging Activity (%)=(Acontrol−Asample)/(Acontrol−Ablank)×100 <Mathematical Formula 3>
Acontrol: Optical density of control group well (sample was not added),
Asample: Optical density of experimental group well (sample was added),
Ablank: Optical density of well not added with sample, TCA and TBA

[3] = Superoxide radical scavenging activity (xanthine/xanthine oxidase, NBT); assay type: biochemical; details: Table 6
Description: Superoxide radical (O^2−) itself has a little reactivity, but is easily changed into H2O2 that generates hydroxyl radical having strong reactivity or is reacted with nitric oxide (NO.) to generate peroxy nitrite (ONOO^−) having strong reactivity, too. Thus, it might be a reason for oxidation of SH-group, nitration of protein tyrosine, lipid peroxidation and DNA damage. […] Basically, measurement of superoxide radical scavenging activity was performed by investigating the activity of superoxide dismutase (SOD), an enzyme scavenging superoxide by dismutation of the same. In the present invention, an activity of a sample to inhibit superoxide production by the enzyme reaction of xanthine/xanthine oxidase and its another activity to inhibit reaction (NBT+20^2−→NBTH2+2O2) generating formazan by reduction of nitro blue tetrazolium (referred as ‘NBT’ hereinafter) were measured. Particularly, wells of a 96-well plate were supplemented with 50 μl of 4 mM xanthine (Sigma), 50 μl of […] NBT (Sigma), 50 μl of 50 mM phosphate buffer (pH 7.8, 1 mM EDTA) and 10 μl of each sample, into which 40 μl of xanthine oxidase was added to induce a reaction. After the reaction was completed, each reaction solution was collected as scheduled, and OD550 was measured with an ELISA reader. […] Superoxide Radical Scavenging Activity (%)=(Acontrol−Asample)/(Acontrol−Ablank)×100 <Mathematical Formula 4> […]

rat brain homogenates = test: Lipid peroxidation inhibitory activity (Fe2+/ascorbic acid, TBA method); details: Table 4
[4] = Nitric oxide scavenging activity; assay type: biochemical; set-up: Nitric oxide scavenging activity (%): concentration or dose not given beside the values
HEK-N/F cells = test: Protection of cells from oxidative damage induced by t-butylhydroperoxide; assay type: cell-based, human; details: 1.5 mM t-butylhydroperoxide 3 hours; for TBARS (pmol/mg protein): compound 50.0 µg/ml
Description: t-butylhydroperoxide is metabolized into a free radical intermediate as it comes in a cell, so that it causes lipid peroxidation, resulting in cell damage. This phenomenon is similar to that caused by oxidataive stress accumulated in cells and tissues. […] HEK-N/F, an epidermal cell line of a newborn baby, was treated with 1.5 mM of t-butylhydroxyperoxide for 3 hours.

Molecule | DPPH radical scavenging activity IC50 [1] | Hydroxyl radical scavenging activity (%) [2] | Superoxide radical scavenging activity IC50 [3] | Lipid Peroxidation Inhibitory Activity IC50 (rat brain homogenates) | Hydroxyl radical scavenging activity (in words) [2] | Nitric oxide scavenging activity (%) [4] | Nitric oxide scavenging activity (in words) [4] | Cell survival rate (%) (HEK-N/F cells) | TBARS (pmol/mg protein) (HEK-N/F cells) | DPPH radical scavenging IC50 ([1]; fractions of the 60% ethanol extract)
tert-butyl-4-hydroxyanisole [BHA, reference compound] | 15.3 ± 0.6 µg/mL | 15.6% | 48.8 ± 2.5 µg/mL | 0.11 ± 0.02 µg/mL | – | – | – | – | – | –
(−)-epigallocatechin-3-O-gallate [Chemical Formula 18] | 6.7 ± 0.4 µg/mL | 54.0% | 24.0 ± 3.5 µg/mL | 1.00 ± 0.08 µg/mL | remarkably higher hydroxyl radical scavenging activities | 26.2 ± 0.9% | comparatively high nitric oxide scavenging activity | 46.6 ± 5.9% | 1032.6 ± 103.5 pmol/mg protein | –
COc1cc(-c2oc3cc(O)cc(O)c3c(=O)c2O[C@@H]2O[C@H](CO[C@@H]3O[C@@H](C)[C@H](O)[C@@H](O)[C@H]3O)[C@@H](O)[C@H](O)[C@H]2O)cc(OC)c1O [Chemical Formula 14, syringetin-3-O-rutinoside] | 35.1 ± 1.5 µg/mL | 10.2% | 45.2 ± 2.2 µg/mL | 19.0 ± 1.52 µg/mL | – | 6.0 ± 0.8% | – | 20.0 ± 2.6% | 2928.1 ± 209.9 pmol/mg protein | –
O=C1C[C@@H](c2ccc(O)cc2)Oc2cc(O)ccc21 [Chemical Formula 3, liquiritigenin] | >50 µg/mL | 3.2% | 59.2 ± 3.8 µg/mL | 6.05 ± 0.99 µg/mL | – | – | – | 12.1 ± 1.0% | 8255.1 ± 576.4 pmol/mg protein | –
(−)-epicatechin-3-O-gallate [Chemical Formula 17] | 6.8 ± 0.5 µg/mL | 39.9% | 11.9 ± 2.1 µg/mL | 2.90 ± 0.06 µg/mL | remarkably higher hydroxyl radical scavenging activities | 25.4 ± 1.2% | comparatively high nitric oxide scavenging activity | 49.4 ± 6.4% | 1007.3 ± 95.2 pmol/mg protein | –
O=C(O)/C=C/c1ccc(O)c(O)c1 [Caffeic acid, caffeic acid, reference compound] | – | – | 11.0 ± 1.8 µg/mL | – | – | – | – | – | – | –
O=C(O)c1cc(O)c(O)c(O)c1 [Chemical Formula 6, gallic acid] | 5.1 ± 0.4 µg/mL | 33.6% | – | 6.80 ± 0.63 µg/mL | – | 25.0 ± 2.0% | – | 41.5±3.1% | 1245.7 ± 112.4 pmol/mg protein | –
Oc1ccc(C=Cc2cc(O)cc(O)c2)cc1 [Chemical Formula 4, resveratrol] | – | – | – | 0.89 ± 0.10 µg/mL | – | – | – | 18.1 ± 1.6% | 2792.4 ± 259.1 pmol/mg protein | –
C[C@@H]1O[C@@H](Oc2c(-c3ccc(O)cc3)oc3cc(O)cc(O)c3c2=O)[C@H](O)[C@H](O)[C@H]1O [Chemical Formula 10, afzelin] | – | – | – | – | – | – | – | 16.8 ± 1.3% | 3295.1 ± 304.5 pmol/mg protein | –
C[C@@H]1O[C@@H](Oc2c(-c3ccc(O)c(O)c3)oc3cc(O)cc(O)c3c2=O)[C@H](O)[C@H](O)[C@H]1O [Chemical Formula 11, quercitrin] | – | – | – | – | – | – | – | – | 2217.2 ± 200.3 pmol/mg protein | –
Cc1c(C)c2c(c(C)c1O)CC[C@@](C)(CCC[C@H](C)CCC[C@H](C)CCCC(C)C)O2 [α-tocopherol, reference compound] | 25.4 ± 0.9 µg/mL | 0.8% | – | 6.61 ± 0.95 µg/mL | – | – | – | – | – | –
vitamin E [reference compound] | – | – | – | – | – | – | – | – | – | 24.9 µg/mL
COc1cc(-c2oc3cc(O)cc(O)c3c(=O)c2O[C@@H]2O[C@H](CO[C@@H]3O[C@@H](C)[C@H](O)[C@@H](O)[C@H]3O)[C@@H](O)[C@H](O)[C@H]2OC(=O)c2cc(O)c(O)c(O)c2)cc(OC)c1O [Chemical Formula 15, syringetin-3-O-(2″-O-galloyl)-rutinoside] | 29.2 ± 1.8 µg/mL | 16.4% | 37.1 ± 2.0 µg/mL | 10.10 ± 1.02 µg/mL | – | 14.1 ± 1.4% | – | – | – | –
O=C(/C=C/c1ccc(O)cc1)c1ccc(O)cc1O [Chemical Formula 1, isoliquiritigenin] | – | – | – | 3.33 ± 0.50 µg/mL | – | – | – | 13.9 ± 12.6% | 5118.1 ± 410.5 pmol/mg protein | –
COc1ccc(/C=C/C(=O)c2ccc(O)cc2O)cc1 [Chemical Formula 2, 2′,4′-dihydroxy-4-methoxychalcone] | >50 µg/mL | 4.5% | 49.8 ± 3.1 µg/mL | 12.81 ± 1.86 µg/mL | – | – | – | 16.2 ± 3.2% | 3449.7 ± 305.8 pmol/mg protein | –

From patent publication US7763287B2, “Extract of Cercis chinensis having anti-oxidant activity and anti-aging activity, and cosmetical composition containing the extract for anti-oxidation, skin-aging protection and wrinkle improvement” (Hankook Pharm. Co., Inc., priority 2002, dated 2010)
